The results in this text go back to US10328077B2 (CELGENE CORPORATION, priority 2016, dated 2019).

SMILES strings stand for the structures. Some results are limits rather than exact numbers.

By IC50 is commonly meant the concentration at which inhibition is half-maximal.

Assay [1] relates to Kasumi-1 AML cancer cell line. The assay is described as follows: Kasumi-1 AML cell line proliferation assay (Cell-MTS). The class given is cell-based. The note with it: Homo sapiens, 168 hours. From the text:
Colorimetric cellular assay to assess the ability of LSD-1 small molecule inhibitors to effect the proliferation of the established AML cancer cell line Kasumi-1
This Cell-MTS assay is a 7-day plate based colorimetric assay which quantifies the amount of newly generated NADH in the presence and absence of test compound. These NADH levels are used as a proxy for the quantification of cancer cell proliferation.
The established cancer cell line Kasumi-1 with a verified p53 mutation were purchased from American Type Culture Collection (ATCC) and routinely passaged according to ATCC published protocols. For routine assay these cells were seeded at a density of 20,000 cells per 96-well. […] At the end of this compound incubation period, 80 μl of media is removed and 20 μL of CellTiter 96® AQueous Non-Radioactive Cell Proliferation Assay solution (Promega) is added. The cells are incubated until the OD490 is >0.6. IC50 values are calculated using the IDBS XLfit software package and include background subtracted OD490 values and normalization to DMSO controls.

For another assay, the target named is human LSD-1 (Homo sapiens (Human), UniProt O60341). The assay is described as follows: In vitro enzyme inhibition assay LSD-1 (TR-FRET). Type of assay: biochemical. Particulars: TR-FRET, H3K4me1-biotin labeled peptide. From the text:
This assay determines the ability of a test compound to inhibit LSD-1 demethylase activity.
The enzymatic assay of LSD-1 activity is based on Time Resolved-Fluorescence Resonance Energy Transfer (TR-FRET) detection.
(In general: Time-resolved FRET reads energy transfer from a long-lived donor to a nearby acceptor.)

The subject of assay [2] is CD11b expression in THP-1 (AML) cells. The assay is described as follows: LSD-1 CD11b cellular assay (flow cytometry). The note with it: Homo sapiens, THP-1, 96 h, read-out: THP-1 IC50. (In flow cytometry, cells or beads pass a laser one at a time.)

`Cn1c(N2CCC(N)CC2)nc(-c2ccc(C#N)c(F)c2)c(-c2cnn(CC(F)(F)F)c2)c1=O` [Example 34, 4-{2-(4-amino-piperidin-1-yl)-1-methyl-6-oxo-5-[1-(2,2,2-trifluoro-ethyl)-1H-pyrazol-4-yl]-1,6-dihydro-pyrimidin-4-yl}-2-fluoro-benzonitrile]: the IC50 (in assay [1]; against human LSD-1; in assay [2]) was below 0.1 µM throughout.
For `Cn1c(N2CCC(N)CC2)nc(-c2ccc(C#N)c(F)c2)c(-c2ccc3[nH]ncc3c2)c1=O` [Example 88, 4-[2-(4-aminopiperidin-1-yl)-5-(1H-indazol-5-yl)-1-methyl-6-oxopyrimidin-4-yl]-2-fluorobenzonitrile], the IC50 (in assay [1]; against human LSD-1; in assay [2]) was below 0.1 µM each time.
Turning to `Cc1ccc(-c2c(-c3ccc(C#N)c(F)c3)nc(N3CCC(N)CC3)n(C)c2=O)cn1` [Example 9], the concentration for half-maximal inhibition (IC50) (in assay [1]; against human LSD-1; in assay [2]) was below 0.1 µM throughout.
For `CNC1CCN(c2nc(-c3ccc(C#N)c(F)c3)c(-c3ccc4nn(C)cc4c3)c(=O)n2C)CC1` [Example 65, 2-fluoro-4-[1-methyl-2-(4-methylamino-piperidin-1-yl)-5-(2-methyl-2H-indazol-5-yl)-6-oxo-1,6-dihydro-pyrimidin-4-yl]-benzonitrile], the IC50 (in assay [1]; at human LSD-1; in assay [2]) was below 0.1 µM throughout.
With `CN(C)C1CCN(c2nc(-c3ccc(C#N)c(F)c3)c(-c3ccc4nn(C)cc4c3)c(=O)n2C)CC1` [Example 71, 4-[2-(4-dimethylamino-piperidin-1-yl)-1-methyl-5-(2-methyl-2H-indazol-5-yl)-6-oxo-1,6-dihydro-pyrimidin-4-yl]-2-fluoro-benzonitrile], the IC50 (in assay [1]; against human LSD-1; in assay [2]) was below 0.1 µM throughout.
Regarding `Cn1cc2cc(-c3c(-c4ccc(C#N)cc4)nc(N4CCC(N)CC4)n(C)c3=O)ccc2n1` [Example 24, 4-[2-(4-aminopiperidyl)-1-methyl-5-(2-methyl(2H-indazol-5-yl))-6-oxohydropyrimidin-4-yl]benzenecarbonitrile], the IC50 in assay [1] and in assay [2] was below 0.1 µM each time.
Regarding `Cn1cc2cc(-c3c(-c4ccc(C#N)c(F)c4)nc(N4CCCNCC4)n(C)c3=O)ccc2n1` [Example 66, 4-[2-[1,4]diazepan-1-yl-1-methyl-5-(2-methyl-2H-indazol-5-yl)-6-oxo-1,6-dihydro-pyrimidin-4-yl]-2-fluoro-benzonitrile], the IC50 (in assay [1]; on human LSD-1; in assay [2]) was below 0.1 µM each time.
As to `COc1ccc(-c2c(-c3ccc(C#N)c(F)c3)nc(N3CCC(N)CC3)n(C)c2=O)cc1` [Example 6, 4-[2-(4-amino-piperidin-1-yl)-5-(4-methoxy-phenyl)-1-methyl-6-oxo-1,6-dihydro-pyrimidin-4-yl]-2-fluoro-benzonitrile], the IC50 (in assay [1]; against human LSD-1; in assay [2]) was below 0.1 µM throughout.
For `Cn1c(N2CCC(N)CC2)nc(-c2ccc(C#N)c(F)c2)c(-c2ccc3c(cnn3C)c2)c1=O` [Example 35, 4-[2-(4-amino-piperidin-1-yl)-1-methyl-5-(1-methyl-1H-indazol-5-yl)-6-oxo-1,6-dihydro-pyrimidin-4-yl]-2-fluoro-benzonitrile], the IC50 in assay [1] and in assay [2] was below 0.1 µM each time.
Consider `Cn1c(N2CCC(N)CC2)nc(-c2ccc(C#N)cc2)c(-c2cnn(CC(F)(F)F)c2)c1=O` [Example 36, 4-{2-(4-amino-piperidin-1-yl)-1-methyl-6-oxo-5-[1-(2,2,2-trifluoro-ethyl)-1H-pyrazol-4-yl]-1,6-dihydro-pyrimidin-4-yl}-benzonitrile], for which the IC50 (in assay [1]; on human LSD-1; in assay [2]) was below 0.1 µM throughout.
For `Cn1c(N2CCC(N)CC2)nc(-c2ccc(C#N)c(F)c2)c(-c2ccc3cn[nH]c3c2)c1=O` [Example 77, 4-[2-(4-amino-piperidin-1-yl)-5-(1H-indazol-6-yl)-1-methyl-6-oxo-1,6-dihydro-pyrimidin-4-yl]-2-fluoro-benzonitrile], the IC50 (against human LSD-1; in assay [2]) was below 0.1 µM in each case.
As for `COc1ccc(-c2c(-c3ccc(C#N)c(F)c3)nc(N3CC[C@@H](N)[C@@H](F)C3)n(C)c2=O)cc1` [Example 78, 4-[2-((4R, 3S)-4-amino-3-fluoro-piperidin-1-yl)-5-(4-methoxy-phenyl)-1-methyl-6-oxo-1,6-dihydro-pyrimidin-4-yl]-2-fluoro-benzonitrile], the IC50 (against human LSD-1; in assay [2]) was below 0.1 µM each time.
With `COc1ccc(-c2c(-c3ccc(C#N)c(F)c3)nc(N3CCC[C@@H](N)C3)n(C)c2=O)cc1` [Example 30, 4-[2-((3R)-3-aminopiperidyl)-5-(4-methoxyphenyl)-1-methyl-6-oxohydro-pyrimidin-4-yl]-2-fluorobenzenecarbonitrile], the IC50 (against human LSD-1; in assay [2]) was below 0.1 µM in each case.
In the case of `COc1ccc(-c2c(-c3ccc(C#N)c(F)c3)nc(N3CCC[C@H](N)C3)n(C)c2=O)cc1` [Example 31, 4-[2-((3S)-3-amino-piperidin-1-yl)-5-(4-methoxy-phenyl)-1-methyl-6-oxo-1,6-dihydro-pyrimidin-4-yl]-2-fluoro-benzonitrile], the IC50 (against human LSD-1; in assay [2]) was below 0.1 µM throughout.
As to `Cn1c(N2CCC(N)CC2)nc(-c2ccc(C#N)c(F)c2)c(-c2ccc(Cl)cc2)c1=O` [Example 106, 4-[2-(4-aminopiperidin-1-yl)-5-(4-chlorophenyl)-1-methyl-6-oxopyrimidin-4-yl]-2-fluorobenzonitrile], the IC50 (against human LSD-1; in assay [2]) was below 0.1 µM in each case.
Turning to `Cn1c(N2CCC(N)CC2)nc(-c2ccc(C#N)c(F)c2)c(-c2cc(F)cc(F)c2)c1=O` [Example 103, 4-[2-(4-aminopiperidin-1-yl)-5-(3,5-difluorophenyl)-1-methyl-6-oxopyrimidin-4-yl]-2-fluorobenzonitrile], the IC50 (against human LSD-1; in assay [2]) was below 0.1 µM each time.
`Cn1c(N2CCC(N)CC2)nc(-c2ccc(C#N)c(F)c2)c(-c2ccc(N3CCOCC3)nc2)c1=O` [Example 68, 4-[2-(4-amino-piperidin-1-yl)-1-methyl-5-(6-morpholin-4-yl-pyridin-3-yl)-6-oxo-1,6-dihydro-pyrimidin-4-yl]-2-fluoro-benzonitrile]: the IC50 (against human LSD-1; in assay [2]) was below 0.1 µM in each case.
With `CCc1ccc(-c2c(-c3ccc(C#N)cc3)nc(N3CCC(N)CC3)n(C)c2=O)cn1` [Example 10, 4-[2-(4-amino-piperidin-1-yl)-5-(6-ethyl-pyridin-3-yl)-1-methyl-6-oxo-1,6-dihydro-pyrimidin-4-yl]-benzonitrile], the IC50 at human LSD-1 is below 0.1 µM; in assay [2] it was 0.1 to 1 µM.
Taken in the same sequence, the figures for `COc1ccc(-c2c(-c3ccc(C#N)c(F)c3)nc(N3CC(N)C3)n(C)c2=O)cc1` [Example 64, 4-[2-(3-amino-azetidin-1-yl)-5-(4-methoxy-phenyl)-1-methyl-6-oxo-1,6-dihydro-pyrimidin-4-yl]-2-fluoro-benzonitrile] were below 0.1 µM and 0.1 to 1 µM.
Consider `Cn1c(N2CCC(N)CC2)nc(-c2ccc(C#N)cc2)c(-c2ccc(OCCO)cc2)c1=O` [Example 97, 4-[2-(4-aminopiperidin-1-yl)-5-[4-(2-hydroxyethoxy)phenyl]-1-methyl-6-oxopyrimidin-4-yl]benzonitrile], for which the IC50 (at human LSD-1; in assay [2]) was below 0.1 µM each time.
For the molecule `CNC1CCN(c2nc(-c3ccc(C#N)c(F)c3)c(-c3ccc(OC)nc3)c(=O)n2C)CC1` [Example 58, 2-fluoro-4-[5-(6-methoxy-pyridin-3-yl)-1-methyl-2-(4-methylamino-piperidin-1-yl)-6-oxo-1,6-dihydro-pyrimidin-4-yl]-benzonitrile], the 50% inhibitory concentration (IC50) (against human LSD-1; in assay [2]) was below 0.1 µM in each case.
For `Cn1c(N2CCC(N)CC2)nc(-c2ccc(C#N)c(F)c2)c(-c2ccc(CO)cc2)c1=O` [Example 100, 4-[2-(4-aminopiperidin-1-yl)-5-[4-(hydroxymethyl)phenyl]-1-methyl-6-oxopyrimidin-4-yl]-2-fluorobenzonitrile], the IC50 (on human LSD-1; in assay [2]) was below 0.1 µM in each case.
Turning to `COc1ccc(-c2c(-c3ccc(C#N)c(F)c3)nc(N3CCC(N(C)C)CC3)n(C)c2=O)cn1` [Example 92, 4-[2-[4-(dimethylamino)piperidin-1-yl]-5-(6-methoxypyridin-3-yl)-1-methyl-6-oxopyrimidin-4-yl]-2-fluorobenzonitrile], the IC50 (on human LSD-1; in assay [2]) was below 0.1 µM in each case.
On to `COc1ccc(-c2c(-c3ccc(C#N)c(F)c3)nc(N3CCCNCC3)n(C)c2=O)cc1F` [Example 46, 4-[2-[1,4]diazepan-1-yl-5-(3-fluoro-4-methoxy-phenyl)-1-methyl-6-oxo-1,6-dihydro-pyrimidin-4-yl]-2-fluoro-benzonitrile], for which the IC50 (against human LSD-1; in assay [2]) was below 0.1 µM each time.
